“Also recorded” adds a separate entry of the source.
Legend:
[1] = test system: mice treated by renal ischemia reperfusion; test: Renal ischemia reperfusion, F4/80 immunostaining of kidney tissue (macrophages); type: in vivo; conditions: day 5 after ischemia reperfusion; 20 mM D-serine water vs water
Description: The animals were reared with free access to water and feed under conditions with an SPF environment and 12-hour light-dark cycling. C57BL/6J mice were purchased from Clea Japan, Inc. (Osaka). Male 12- to 16-week-old mice were treated by renal ischemia reperfusion (hereunder also referred to as “I/R”). The renal pedicles were clamped with a non-traumatic clip (Natsume Seisakusho, Tokyo) under pentobarbital anesthesia to elicit ischemia. The clips were released after 40 minutes. The body temperature was kept at 37° C. during treatment. The mice were reared with free access to water (control) or 20 mM D-serine-containing water, prior to 14 days after IR treatment. On day 0, 2, 5, 7 and 10 after IR treatment, the kidney tissues were sampled. Renal samples harvested on day 0 and day 5 were fixed with 10% neutral buffered formalin and supplied for immunostaining using F4/80 antibody (Invitrogen, catalog #: MF48,000). F4/80 is a protein expressed specifically by macrophages, and it allows visualization of macrophages in kidney tissue. In the water-administered control group, cells stained with F4/80 were found accumulated in kidney tissue (day 5), but in the D-serine-administered group such cellular accumulation was minimal (FIG. 3(A)). The regions stained with F4/80 in the kidney tissue harvested on day […] were measured and shown (FIG. 3(B)).

[2] = Blood D-serine concentration after free provision of 20 mM D-serine water; type: in vivo; conditions: mice reared with free access to 20 mM D-serine-containing water
Description: The animals were reared with free access to water and feed under conditions with an SPF environment and 12-hour light-dark cycling. C57BL/6J mice were purchased from Clea Japan, Inc. (Osaka).
The mice were reared in an environment allowing free access to water (control) or 20 mM D-serine-containing water, and the blood D-serine concentrations were measured. The blood D-serine concentrations were determined by total amino acid optical isomer analysis using a D, L-amino acid simultaneous high sensitivity analysis system developed by Zaitsu et al. (Japanese Patent No. 4291628). The details regarding the analysis conditions for each amino acid are described in Miyoshi Y. et al., J. Chromatogr. B, 879:3184(2011) and Sasabe, J. et al., Proc. Natl. Acad. Sci. U.S.A., 109:627(2012). In brief, serum and urine amino acids were fluorescently derivatized with NBD-F (4-fluoro-7-nitro-2,1,3-benzooxadiazole, Tokyo Kasei Kogyo Co., Ltd.) and supplied to an HPLC system (NANOSPACE SI-2 Series, product of Shiseido Corp.). NBD-amino acids separated two-dimensionally using an in-house reversed-phase column with an octadecyl group as the stationary phase and a chiral column with an amino acid derivative as the stationary phase, were quantitatively analyzed after detection at an excitation wavelength of 470 nm and a detection wavelength of 530 nm. […]

[3] = test system: mice treated by renal ischemia reperfusion; test: Renal ischemia reperfusion, PAS staining and ATN score of kidney tissue sections; type: in vivo
Description: The animals were reared with free access to water and feed under conditions with an SPF environment and 12-hour light-dark cycling. C57BL/6J mice were purchased from Clea Japan, Inc. (Osaka). Male 12- to 16-week-old mice were treated by renal ischemia reperfusion (hereunder also referred to as “I/R”). The renal pedicles were clamped with a non-traumatic clip (Natsume Seisakusho, Tokyo) under pentobarbital anesthesia to elicit ischemia. The clips were released after 40 minutes. The body temperature was kept at 37° C. during treatment. The mice were reared with free access to water (control) or 20 mM D-serine-containing water, prior to 14 days after IR treatment. On day 0, 2, 5, 7 and 10 after IR treatment, the kidney tissues were sampled. Kidneys sampled on day 0, 2 and 10 were fixed with 10% neutral buffered formalin and embedded in paraffin, and then stained with periodic acid-Schiff (PAS staining). The stained slices were photographed with a bright-field microscope (FIG. 1). Debris stained with PAS (skin boundary) or brush border (skin boundary and cortical region) were quantitatively evaluated in at least 10 different locations. Renal tubule necrosis (A), intraluminal debris (B) and brush border region (C) were evaluated by ATN score (0: none, 1: mild, 2: moderate, 3: severe), with the results shown in FIGS. 2(A) to (C). Sample evaluation was carried out blind.

rats = conditions: intraperitoneal, 800 mg/kg (NPL 3), 400 mg/kg (NPL 4) or 250 mg/kg (NPLs 5 and 6); cited from earlier work

N[C@H](CO)C(=O)O [D-serine]
F4/80 staining of kidney tissue (accumulation of macrophages and monocytes) [1]: little change in staining intensity; also recorded: minimal | blood D-serine concentration [2]: 100 nmol/mL | grades of necrosis, intraluminal debris and brush border region (ATN score) ([3]; 0, 2, 5, 7 and 10 days after ischemia reperfusion, compared to the group given water): improved | PAS staining intensity of kidney tissue section (accumulation of inflammatory cells such as neutrophils and eosinophils) ([3]; day 10 after ischemia reperfusion, 20 mM D-serine water vs water): no such change in staining intensity | protecting effect on the kidneys ([3]; mice, drinking water containing 20 mM D-serine, blood concentration 100 nmol/mL): able to exhibit a protecting effect on the kidneys | nephrotoxicity (rats): causes nephrotoxicity

Reference: patent US20210283082A1, “PHARMACEUTICAL COMPOSITION FOR PREVENTION OR TREATMENT OF KIDNEY DAMAGE” (National University Corporation Kanazawa University, priority 2018, published 2021)
